# Measured values reported in ChEMBL document CHEMBL1201862, “PubChem BioAssay data set” (2004).
# The source made the active and inactive calls.
# Key:
# [1] = Jurkat T cell cytotoxicity, dose response, cytotoxicity control for P. falciparum gametocyte viability project, luminescence (AID 1117277); format: functional, cell-based;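 also: potency reflects loss of cellular ATP meaning fewer viable cells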
# [2] = P. falciparum late gametocyte killing, dose response, luminescence (AID 1117278); format: functional, cell-based;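 also: gametocytes exposed to compound for 24 hours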
# Prothrombin = Prothrombin (Homo sapiens, UniProt P00734); assay: Thrombin 1536 HTS Dose Response Confirmation. [Related pubchem assays: 1046 (Thrombin 1536 HTS; hits were confirmed in this assay)]; format: functional
# [3] = molecular target: T1, Luciferin 4-monooxygenase (Photinus pyralis, UniProt P08659); assay: Counter Screen for Luciferase-based Assay Positives. [Related pubchem assays: 620, 618, 411 ]
# HT-1080 = assay: cytotoxicity in HT1080 fibrosarcoma cells, cell-based, fluorescence readout (AID 620); format: functional; conditions: Homo sapiens
# [4] = molecular target: Mitogen-activated protein kinase 10 (Homo sapiens, UniProt P53779); assay: Dose response biochemical screening assay for inhibitors of c-Jun N-Terminal Kinase 3 (JNK3). [Related pubchem assays: 746 ]
# Estrogen receptor = molecular target: T2, Estrogen receptor (Homo sapiens, UniProt P03372);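 also: potency for inhibiting coactivator peptide recruitment to the receptor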
# T2 sequence (P03372 whole entry): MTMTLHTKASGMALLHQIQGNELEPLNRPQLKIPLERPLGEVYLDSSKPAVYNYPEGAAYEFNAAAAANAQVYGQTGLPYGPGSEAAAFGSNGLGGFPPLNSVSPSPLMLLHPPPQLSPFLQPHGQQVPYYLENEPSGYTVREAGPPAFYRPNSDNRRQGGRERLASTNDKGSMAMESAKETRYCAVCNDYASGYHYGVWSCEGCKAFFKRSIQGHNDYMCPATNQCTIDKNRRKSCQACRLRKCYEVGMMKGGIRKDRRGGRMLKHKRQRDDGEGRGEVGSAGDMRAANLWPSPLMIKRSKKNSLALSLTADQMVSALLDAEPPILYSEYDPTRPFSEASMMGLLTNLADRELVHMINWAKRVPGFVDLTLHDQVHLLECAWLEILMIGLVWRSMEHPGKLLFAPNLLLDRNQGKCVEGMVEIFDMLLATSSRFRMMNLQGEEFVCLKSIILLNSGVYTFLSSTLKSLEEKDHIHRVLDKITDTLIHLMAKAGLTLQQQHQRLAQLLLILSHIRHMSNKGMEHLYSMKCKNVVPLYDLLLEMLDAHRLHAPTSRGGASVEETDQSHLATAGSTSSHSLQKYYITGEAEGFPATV
# Aminopeptidase N = molecular target: T3, Aminopeptidase N (Plasmodium falciparum FcB1/Columbia, UniProt O96935); assay: P. falciparum M1AAP inhibitors, biochemical, fluorogenic H-Leu-NHMec substrate, 1536-well (AID 1445); set-up: species or system Plasmodium falciparum 3D7, 3D7
# T3 sequence (O96935 whole entry): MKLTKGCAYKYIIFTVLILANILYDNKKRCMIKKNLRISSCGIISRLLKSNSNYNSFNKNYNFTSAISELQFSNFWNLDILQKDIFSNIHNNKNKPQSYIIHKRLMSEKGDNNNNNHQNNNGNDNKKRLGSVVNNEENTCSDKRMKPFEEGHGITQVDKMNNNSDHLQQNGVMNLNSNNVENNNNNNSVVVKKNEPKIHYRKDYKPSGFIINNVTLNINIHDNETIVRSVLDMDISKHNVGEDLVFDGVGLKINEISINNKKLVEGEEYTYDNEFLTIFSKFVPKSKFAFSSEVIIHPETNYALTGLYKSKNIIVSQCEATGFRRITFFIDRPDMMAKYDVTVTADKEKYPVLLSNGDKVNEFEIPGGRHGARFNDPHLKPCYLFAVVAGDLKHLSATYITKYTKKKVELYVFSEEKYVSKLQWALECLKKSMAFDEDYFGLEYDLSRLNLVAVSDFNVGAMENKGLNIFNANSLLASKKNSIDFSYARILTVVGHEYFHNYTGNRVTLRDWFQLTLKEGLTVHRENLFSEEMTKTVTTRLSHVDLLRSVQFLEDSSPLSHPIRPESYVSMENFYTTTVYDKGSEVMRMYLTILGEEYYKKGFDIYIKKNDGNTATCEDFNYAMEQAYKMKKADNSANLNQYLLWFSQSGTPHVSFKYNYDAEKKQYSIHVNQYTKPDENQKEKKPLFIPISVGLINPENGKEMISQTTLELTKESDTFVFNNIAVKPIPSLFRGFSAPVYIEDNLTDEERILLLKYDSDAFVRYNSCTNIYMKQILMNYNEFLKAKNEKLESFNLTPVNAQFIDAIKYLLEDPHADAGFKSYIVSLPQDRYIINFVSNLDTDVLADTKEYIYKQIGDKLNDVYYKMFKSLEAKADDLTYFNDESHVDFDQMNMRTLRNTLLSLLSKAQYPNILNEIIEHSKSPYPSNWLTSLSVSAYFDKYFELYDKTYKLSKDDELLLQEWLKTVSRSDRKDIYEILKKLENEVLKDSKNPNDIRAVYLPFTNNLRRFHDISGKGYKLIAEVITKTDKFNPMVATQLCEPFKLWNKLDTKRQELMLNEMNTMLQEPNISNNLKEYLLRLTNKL
# cells = format: functional
# [5] = THP-1 cell cytotoxicity, dose response, cytotoxicity control for non-replicating M. tuberculosis project (AID 489025); format: functional
# [6] = molecular target: T4, Mannose-6-phosphate isomerase (Homo sapiens, UniProt P34949); assay: human PMI inhibitors, high substrate, primary screen, biochemical, fluorescence intensity, high mannose 6-phosphate (AID 1220)
# T4 sequence (P34949 whole entry): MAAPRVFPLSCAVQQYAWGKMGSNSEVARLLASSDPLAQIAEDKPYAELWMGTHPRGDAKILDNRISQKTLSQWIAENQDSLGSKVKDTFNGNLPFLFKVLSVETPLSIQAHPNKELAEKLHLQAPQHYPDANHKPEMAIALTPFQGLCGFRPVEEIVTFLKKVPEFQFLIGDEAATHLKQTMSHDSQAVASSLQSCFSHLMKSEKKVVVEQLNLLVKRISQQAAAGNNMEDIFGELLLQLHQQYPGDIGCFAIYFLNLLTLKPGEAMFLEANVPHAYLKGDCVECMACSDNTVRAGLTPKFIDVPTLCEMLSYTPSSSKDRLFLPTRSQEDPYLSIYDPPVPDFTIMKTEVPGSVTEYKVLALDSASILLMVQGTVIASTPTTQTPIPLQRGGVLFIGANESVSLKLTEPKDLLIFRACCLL
# [7] = Luminescence-based cell-based high throughput dose response assay to identify activators of the DAF-12 from the parasite S. stercoralis (ssDAF-12).; format: functional
# [8] = molecular target: T5, Oxysterols receptor LXR-beta (Homo sapiens, UniProt P55055); assay: LXR agonists, Gal4 luciferase reporter, dose response, counter-screen for ssDAF-12 agonist project, cell-based, luminescence, HEK293, S. stercoralis campaign (AID 720737); format: functional; conditions: read-out: IC50 (the source's name)
# T5 sequence (P55055 whole entry): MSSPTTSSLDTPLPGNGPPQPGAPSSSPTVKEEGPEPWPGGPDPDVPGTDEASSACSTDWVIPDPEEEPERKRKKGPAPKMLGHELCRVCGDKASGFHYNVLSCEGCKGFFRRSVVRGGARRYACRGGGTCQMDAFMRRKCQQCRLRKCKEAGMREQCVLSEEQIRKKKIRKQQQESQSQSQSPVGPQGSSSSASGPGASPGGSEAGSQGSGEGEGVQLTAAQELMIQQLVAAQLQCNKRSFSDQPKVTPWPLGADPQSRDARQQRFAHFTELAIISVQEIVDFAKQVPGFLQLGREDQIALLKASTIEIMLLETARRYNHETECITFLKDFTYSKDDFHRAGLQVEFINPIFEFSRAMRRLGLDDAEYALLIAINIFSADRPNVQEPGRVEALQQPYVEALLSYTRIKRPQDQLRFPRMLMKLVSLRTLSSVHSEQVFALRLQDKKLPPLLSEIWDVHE
# [9] = molecular target: T6, Short transient receptor potential channel 4 (Mus musculus, UniProt Q9QUQ5); assay: mouse TRPC4 channel activators, dose response, cell-based, HEK293 TRPC4/mu-opioid, Fluo-4 calcium (AID 434937); format: functional
# T6 sequence (Q9QUQ5 whole entry): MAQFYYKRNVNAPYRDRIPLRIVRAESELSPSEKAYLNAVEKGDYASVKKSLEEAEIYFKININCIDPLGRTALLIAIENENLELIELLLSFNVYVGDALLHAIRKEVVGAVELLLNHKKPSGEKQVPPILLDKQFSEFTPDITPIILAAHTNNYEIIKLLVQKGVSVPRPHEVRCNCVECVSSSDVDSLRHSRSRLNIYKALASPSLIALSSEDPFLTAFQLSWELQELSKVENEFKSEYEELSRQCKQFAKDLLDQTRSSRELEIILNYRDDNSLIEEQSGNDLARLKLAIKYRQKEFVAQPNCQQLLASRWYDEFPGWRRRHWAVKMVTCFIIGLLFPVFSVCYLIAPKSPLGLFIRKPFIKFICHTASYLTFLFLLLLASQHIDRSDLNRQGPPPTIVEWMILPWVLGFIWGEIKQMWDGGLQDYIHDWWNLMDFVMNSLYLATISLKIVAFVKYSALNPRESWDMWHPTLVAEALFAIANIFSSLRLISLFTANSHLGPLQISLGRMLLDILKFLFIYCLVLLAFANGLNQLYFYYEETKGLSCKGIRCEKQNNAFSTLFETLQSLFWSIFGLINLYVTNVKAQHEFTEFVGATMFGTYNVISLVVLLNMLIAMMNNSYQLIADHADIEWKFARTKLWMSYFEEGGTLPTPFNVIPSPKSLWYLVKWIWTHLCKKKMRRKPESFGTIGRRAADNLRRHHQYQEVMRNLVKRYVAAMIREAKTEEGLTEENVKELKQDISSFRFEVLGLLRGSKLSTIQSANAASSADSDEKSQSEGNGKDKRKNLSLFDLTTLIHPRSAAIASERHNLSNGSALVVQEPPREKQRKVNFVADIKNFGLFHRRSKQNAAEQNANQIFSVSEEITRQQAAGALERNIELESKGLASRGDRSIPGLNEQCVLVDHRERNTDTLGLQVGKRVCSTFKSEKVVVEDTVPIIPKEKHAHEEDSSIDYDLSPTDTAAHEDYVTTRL
# [10] = inhibitors of SNCA 5'UTR-driven reporter translation, confirmation, H4 neuroglioma cells, luminescence (AID 1988); format: functional, cell-based
# [11] = molecular target: T1, Luciferin 4-monooxygenase; assay: firefly luciferase enzyme inhibitors, dose response, biochemical, luminescence (AID 1891)
# [12] = Luminescence Cell-Based Dose Response HTS to Identify Inhibitors of 5'UTR Stem-Loop Driven Prion Protein mRNA Translation in H4 Neuroglioblastoma Cells. [Related pubchem assays: 1827 (Project Summary), 1813 (Primary HTS)]; format: functional
# [13] = Luminescence Cell-Based Dose Confirmation HTS to Identify Inhibitors of Platelet Dense Granule Release. [Related pubchem assays: 1663 (Primary HTS), 1678 (Summary of Project)]; format: functional
# [14] = molecular target: T7, Heat shock factor protein 1 (Mus musculus, UniProt P38532); assay: inhibition of MG132-induced HSE-luciferase signal, confirmation, cell-based, NIH3T3, luminescence, dose retest (AID 2382); format: functional;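 also: NIH3T3 fibroblasts with HSF1-driven luciferase reporter stressed by proteasome inhibitor MG132; luminescence from HSF1-driven luciferase expression after 8 hours of MG132 stress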
# T7 sequence (P38532 whole entry): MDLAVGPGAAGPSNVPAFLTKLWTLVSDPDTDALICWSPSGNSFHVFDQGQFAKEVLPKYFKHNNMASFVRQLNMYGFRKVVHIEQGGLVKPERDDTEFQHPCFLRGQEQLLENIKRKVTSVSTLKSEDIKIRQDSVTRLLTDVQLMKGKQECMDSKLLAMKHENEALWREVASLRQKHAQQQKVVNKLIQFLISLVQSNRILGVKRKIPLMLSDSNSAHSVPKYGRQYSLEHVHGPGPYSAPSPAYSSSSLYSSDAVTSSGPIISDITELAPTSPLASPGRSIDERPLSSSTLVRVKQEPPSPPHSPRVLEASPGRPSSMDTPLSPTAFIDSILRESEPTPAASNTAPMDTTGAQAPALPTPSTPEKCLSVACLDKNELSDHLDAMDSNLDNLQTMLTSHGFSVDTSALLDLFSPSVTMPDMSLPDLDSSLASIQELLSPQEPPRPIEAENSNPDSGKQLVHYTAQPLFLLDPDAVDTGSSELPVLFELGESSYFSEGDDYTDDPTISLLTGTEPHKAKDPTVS
# T1 sequence (P08659 whole entry): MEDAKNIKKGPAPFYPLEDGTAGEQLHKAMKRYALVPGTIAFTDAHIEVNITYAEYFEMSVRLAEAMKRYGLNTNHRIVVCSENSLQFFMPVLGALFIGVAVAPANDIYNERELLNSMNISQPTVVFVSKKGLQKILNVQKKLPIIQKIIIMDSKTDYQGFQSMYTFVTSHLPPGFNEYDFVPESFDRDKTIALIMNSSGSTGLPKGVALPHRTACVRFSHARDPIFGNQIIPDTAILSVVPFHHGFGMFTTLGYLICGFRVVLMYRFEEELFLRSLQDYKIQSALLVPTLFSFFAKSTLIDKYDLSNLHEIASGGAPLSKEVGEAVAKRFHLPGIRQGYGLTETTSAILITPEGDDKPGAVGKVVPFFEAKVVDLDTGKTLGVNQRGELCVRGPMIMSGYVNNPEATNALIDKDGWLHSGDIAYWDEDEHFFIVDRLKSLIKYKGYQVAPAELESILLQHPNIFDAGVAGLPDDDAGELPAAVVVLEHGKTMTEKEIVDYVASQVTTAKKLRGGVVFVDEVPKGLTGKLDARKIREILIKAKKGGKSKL
# Mitogen-activated protein kinase 10, sequence (P53779 whole entry): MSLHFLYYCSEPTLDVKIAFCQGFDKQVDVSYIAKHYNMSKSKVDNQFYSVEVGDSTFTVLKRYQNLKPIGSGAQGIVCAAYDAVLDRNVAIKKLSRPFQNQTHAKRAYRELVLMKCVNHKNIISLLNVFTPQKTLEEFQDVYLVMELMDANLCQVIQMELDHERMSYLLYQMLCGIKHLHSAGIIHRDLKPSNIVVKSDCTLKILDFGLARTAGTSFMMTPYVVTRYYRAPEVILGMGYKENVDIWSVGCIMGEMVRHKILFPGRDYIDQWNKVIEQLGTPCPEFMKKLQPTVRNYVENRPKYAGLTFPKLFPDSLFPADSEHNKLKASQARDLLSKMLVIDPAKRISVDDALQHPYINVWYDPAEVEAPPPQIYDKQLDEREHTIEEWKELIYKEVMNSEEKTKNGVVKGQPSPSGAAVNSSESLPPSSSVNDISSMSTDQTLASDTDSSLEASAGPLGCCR
smiles,measurement,setting,value
CCc1ccc(CN(C)Cc2nc(COc3ccccc3)no2)nc1,IC50,[1],> 83.3 µM (inactive)
same,IC50,[2],> 109 µM (inactive)
O=C1c2ccccc2C(O)N1Cc1cccs1 (stereo not drawn),IC50,[1],> 83.3 µM (inactive)
same,IC50,[2],> 109 µM (inactive)
COC(=O)CN1C(=O)C(O)(CC(=O)c2ccc(Cl)cc2)c2ccccc21 (stereo not drawn),IC50,Prothrombin,> 50 µM (not active)
Cc1cccc(-n2ncc3c(N4CCCC4)ncnc32)c1,EC50,[3],1.02 µM (active)
same,EC50,HT-1080,> 50 µM (not active)
Cc1nc2cccc(C(=O)NCc3ccccc3)c2o1,IC50,[4],45.5 µM (not active)
same,IC50,Estrogen receptor,48.4 µM (not active)
CC(NC(=O)CN(C)S(=O)(=O)c1c[nH]cn1)c1ccccc1 (stereo not drawn),IC50,Aminopeptidase N,54.6 µM (active)
O=C(CCN1CCOCC1)c1ccc(Br)cc1,IC50,cells,11.8 µM (active)
same,CC50,[5],> 40 µM (active)
same,IC50,[6],43 µM (active)
O=C(Cc1c(F)cccc1Cl)Nc1ncc([N+](=O)[O-])s1,IC50,[1],> 83.3 µM (inactive)
same,IC50,[2],> 109 µM (inactive)
same,CC50,[5],> 40 µM (active)
c1ccc(-c2n[nH]c3c2CCC3)cc1,IC50,[4],50.9 µM (not active)
COc1ccc2nc(NC(=O)Cc3ccc(OC)c(S(=O)(=O)N4CCOCC4)c3)sc2c1,IC50,[4],28.1 µM (not active)
Cc1ccc(NCc2nc3ccccc3n2C)cc1,IC50,[7],> 67.5 µM (inactive)
same,EC50,[8],> 67.5 µM (inactive)
Cc1ccc(NC(=O)c2ccc3ccccc3n2)cc1S(=O)(=O)N1CCOCC1,IC50,Prothrombin,40.9 µM (active)
COC(=O)c1ccccc1NC(=O)NCc1ccncc1,IC50,[7],> 67.5 µM (inactive)
same,EC50,[8],> 67.5 µM (inactive)
O=C(O)c1ccc(-c2ccc(/C=N/Nc3ccc([N+](=O)[O-])cc3)o2)cc1,IC50,Aminopeptidase N,43.1 µM (active)
same,EC50,[9],2.11 µM (active)
COc1ccc(/N=C/C2=C(O)c3ccccc3C2=O)c(OC)c1,EC50,[3],50.2 µM (active)
same,EC50,[10],8.03 µM (active)
same,EC50,[11],1.21 µM (active)
same,EC50,[12],11.7 µM (active)
same,EC50,[13],3.47 µM (active)
same,EC50,[14],2.42 µM (active)
same,EC50,HT-1080,> 50 µM (not active)
O=C(CNC(=O)c1ccncc1)N/N=C/c1cc(Br)ccc1O,IC50,Aminopeptidase N,24.5 µM (active)
